# Assay results taken from the NIST ThermoML archive (doi:10.1016/j.jct.2017.08.024).
# Numbers after ± are expanded uncertainties.
# Legend:
# [1] = for surface tension liquid-gas: wilhelmy plate; for viscosity: 101.33 kPa, Liquid, Concentric cylinders viscometry
# [2] = wn = mass fraction of the nth substance listed; conditions: for surface tension liquid-gas: wilhelmy plate; for viscosity: 101 kPa, Liquid, Concentric cylinders viscometry
structure (smiles),measurement,setting,value
NCCO [2-aminoethan-1-ol],surface tension liquid-gas,[1]; 303.2 K,47.7 ± 0.6 mN/m
same,viscosity,[1]; 303.2 K,14.47 ± 0.45 mPa·s
same,surface tension liquid-gas,[1]; 313.2 K,45.9 ± 0.6 mN/m
same,viscosity,[1]; 313.2 K,9.87 ± 0.15 mPa·s
same,surface tension liquid-gas,[1]; 323.2 K,44.2 ± 0.6 mN/m
same,viscosity,[1]; 323.2 K,6.79 ± 0.14 mPa·s
CO [methanol],surface tension liquid-gas,[1]; 303.2 K,21.7 ± 0.6 mN/m
same,viscosity,[1]; 303.2 K,0.51 ± 0.12 mPa·s
same,surface tension liquid-gas,[1]; 313.2 K,20.9 ± 0.6 mN/m
same,viscosity,[1]; 313.2 K,0.44 ± 0.12 mPa·s
same,surface tension liquid-gas,[1]; 323.2 K,20 ± 0.6 mN/m
same,viscosity,[1]; 323.2 K,0.39 ± 0.12 mPa·s
OCCNCCO [diethanolamine],surface tension liquid-gas,[1]; 303.2 K,46 ± 0.6 mN/m
same,viscosity,[1]; 303.2 K,381.21 ± 20 mPa·s
same,surface tension liquid-gas,[1]; 313.2 K,44.1 ± 0.6 mN/m
same,viscosity,[1]; 313.2 K,188.64 ± 6.6 mPa·s
same,surface tension liquid-gas,[1]; 323.2 K,42.8 ± 0.6 mN/m
same,viscosity,[1]; 323.2 K,105.98 ± 5.5 mPa·s
O [water] + NCCO,surface tension liquid-gas,"[2]; 303.2 K, w2 = 0",71.1 ± 0.6 mN/m
same,viscosity,"[2]; 303.2 K, w2 = 0",0.8 ± 0.12 mPa·s
same,surface tension liquid-gas,"[2]; 313.2 K, w2 = 0",69.4 ± 0.6 mN/m
same,viscosity,"[2]; 313.2 K, w2 = 0",0.65 ± 0.12 mPa·s
same,surface tension liquid-gas,"[2]; 323.2 K, w2 = 0",67.7 ± 0.6 mN/m
same,viscosity,"[2]; 323.2 K, w2 = 0",0.55 ± 0.12 mPa·s
OCCNCCO [diethanolamine] + O,surface tension liquid-gas,"[2]; 303.2 K, w1 = 0.2",63.3 ± 0.6 mN/m
same,surface tension liquid-gas,"[2]; 303.2 K, w1 = 0.3",60.5 ± 0.6 mN/m
same,surface tension liquid-gas,"[2]; 303.2 K, w1 = 0.4",58.3 ± 0.6 mN/m
same,surface tension liquid-gas,"[2]; 303.2 K, w1 = 1",46 ± 0.6 mN/m
same,viscosity,"[2]; 303.2 K, w1 = 0.2",1.64 ± 0.12 mPa·s
same,viscosity,"[2]; 303.2 K, w1 = 0.3",2.57 ± 0.13 mPa·s
same,viscosity,"[2]; 303.2 K, w1 = 0.4",4.27 ± 0.14 mPa·s
same,viscosity,"[2]; 303.2 K, w1 = 1",381.21 ± 20 mPa·s
same,surface tension liquid-gas,"[2]; 313.2 K, w1 = 0.2",62.1 ± 0.6 mN/m
same,surface tension liquid-gas,"[2]; 313.2 K, w1 = 0.3",58.8 ± 0.6 mN/m
same,surface tension liquid-gas,"[2]; 313.2 K, w1 = 0.4",56.6 ± 0.6 mN/m
same,surface tension liquid-gas,"[2]; 313.2 K, w1 = 1",44.1 ± 0.6 mN/m
same,viscosity,"[2]; 313.2 K, w1 = 0.2",1.29 ± 0.12 mPa·s
same,viscosity,"[2]; 313.2 K, w1 = 0.3",1.98 ± 0.13 mPa·s
same,viscosity,"[2]; 313.2 K, w1 = 0.4",3.01 ± 0.13 mPa·s
same,viscosity,"[2]; 313.2 K, w1 = 1",188.64 ± 6.6 mPa·s
same,surface tension liquid-gas,"[2]; 323.2 K, w1 = 0.2",59.9 ± 0.6 mN/m
same,surface tension liquid-gas,"[2]; 323.2 K, w1 = 0.3",57.4 ± 0.6 mN/m
same,surface tension liquid-gas,"[2]; 323.2 K, w1 = 0.4",54.7 ± 0.6 mN/m
same,surface tension liquid-gas,"[2]; 323.2 K, w1 = 1",42.8 ± 0.6 mN/m
same,viscosity,"[2]; 323.2 K, w1 = 0.2",1.03 ± 0.12 mPa·s
same,viscosity,"[2]; 323.2 K, w1 = 0.3",1.42 ± 0.12 mPa·s
same,viscosity,"[2]; 323.2 K, w1 = 0.4",2.27 ± 0.13 mPa·s
same,viscosity,"[2]; 323.2 K, w1 = 1",105.98 ± 5.5 mPa·s
O [water],surface tension liquid-gas,[1]; 303.2 K,71.1 ± 0.6 mN/m
same,viscosity,[1]; 303.2 K,0.8 ± 0.12 mPa·s
same,surface tension liquid-gas,[1]; 313.2 K,69.4 ± 0.6 mN/m
same,viscosity,[1]; 313.2 K,0.65 ± 0.12 mPa·s
same,surface tension liquid-gas,[1]; 323.2 K,67.7 ± 0.6 mN/m
same,viscosity,[1]; 323.2 K,0.55 ± 0.12 mPa·s
NCCO [2-aminoethan-1-ol] + O,surface tension liquid-gas,"[2]; 303.2 K, w1 = 0.2",62.1 ± 0.6 mN/m
same,surface tension liquid-gas,"[2]; 303.2 K, w1 = 0.3",59.7 ± 0.6 mN/m
same,surface tension liquid-gas,"[2]; 303.2 K, w1 = 0.4",57.8 ± 0.6 mN/m
same,surface tension liquid-gas,"[2]; 303.2 K, w1 = 1",47.7 ± 0.6 mN/m
same,viscosity,"[2]; 303.2 K, w1 = 0.2",1.51 ± 0.12 mPa·s
same,viscosity,"[2]; 303.2 K, w1 = 0.3",2.11 ± 0.13 mPa·s
same,viscosity,"[2]; 303.2 K, w1 = 0.4",3.12 ± 0.13 mPa·s
same,viscosity,"[2]; 303.2 K, w1 = 1",14.47 ± 0.45 mPa·s
same,surface tension liquid-gas,"[2]; 313.2 K, w1 = 0.2",60.4 ± 0.6 mN/m
same,surface tension liquid-gas,"[2]; 313.2 K, w1 = 0.3",58.4 ± 0.6 mN/m
same,surface tension liquid-gas,"[2]; 313.2 K, w1 = 0.4",56.3 ± 0.6 mN/m
same,surface tension liquid-gas,"[2]; 313.2 K, w1 = 1",45.9 ± 0.6 mN/m
same,viscosity,"[2]; 313.2 K, w1 = 0.2",1.18 ± 0.12 mPa·s
same,viscosity,"[2]; 313.2 K, w1 = 0.3",1.63 ± 0.12 mPa·s
same,viscosity,"[2]; 313.2 K, w1 = 0.4",2.29 ± 0.13 mPa·s
same,viscosity,"[2]; 313.2 K, w1 = 1",9.87 ± 0.15 mPa·s
same,surface tension liquid-gas,"[2]; 323.2 K, w1 = 0.2",58.9 ± 0.6 mN/m
same,surface tension liquid-gas,"[2]; 323.2 K, w1 = 0.3",56.4 ± 0.6 mN/m
same,surface tension liquid-gas,"[2]; 323.2 K, w1 = 0.4",54.6 ± 0.6 mN/m
same,surface tension liquid-gas,"[2]; 323.2 K, w1 = 1",44.2 ± 0.6 mN/m
same,viscosity,"[2]; 323.2 K, w1 = 0.2",0.97 ± 0.12 mPa·s
same,viscosity,"[2]; 323.2 K, w1 = 0.3",1.31 ± 0.12 mPa·s
same,viscosity,"[2]; 323.2 K, w1 = 0.4",1.79 ± 0.12 mPa·s
same,viscosity,"[2]; 323.2 K, w1 = 1",6.79 ± 0.14 mPa·s
O [water] + OCCNCCO,surface tension liquid-gas,"[2]; 303.2 K, w2 = 0",71.1 ± 0.6 mN/m
same,viscosity,"[2]; 303.2 K, w2 = 0",0.8 ± 0.12 mPa·s
same,surface tension liquid-gas,"[2]; 313.2 K, w2 = 0",69.4 ± 0.6 mN/m
same,viscosity,"[2]; 313.2 K, w2 = 0",0.65 ± 0.12 mPa·s
same,surface tension liquid-gas,"[2]; 323.2 K, w2 = 0",67.7 ± 0.6 mN/m
same,viscosity,"[2]; 323.2 K, w2 = 0",0.55 ± 0.12 mPa·s
